{"source": "patent US20200069775A1", "about": "“BRAIN OSTEOCALCIN RECEPTOR AND COGNITIVE DISORDERS” (The Trustees of Columbia University in the City of New York, priority 2017, published 2020)", "key": {"3 month-old WT mice": {"test_system": "3 month-old WT mice", "assay": "Alendronate treatment with or without osteocalcin, MWMT and NOR", "assay_type": "in vivo, mouse", "description": "For plasma injection experiments, 100 μl of plasma were injected 8 times during 24 days, via tail vein. Each group described is represented individually in each panel. For osteocalcin delivery in WT mice, pumps (Alzet micro-osmotic pump, Model 1002) delivering osteocalcin (30 ng/hr for 12 month-old and 90 ng/hr for 16 month-old mice), or vehicle, were surgically installed subcutaneously in the back of mice. […] Control mice receiving vehicle or mice receiving alendronate were implanted with osmotic pumps delivering vehicle only.\nMorris water maze test: Animals are transported to the testing room in their home cages, and left undisturbed for at least 30 minutes prior to the first trial. The maze is comprised of a large swimming pool (150cm diameter) filled with water (23° C.) made opaque with non-toxic white paint. The pool is located in a brightly lit room filled with visual cues, including geometric figures on the walls of the maze demarking the four fixed starting positions of the trials, at (12:00, 3:00, 6:00 and 9:00). A 15 cm round platform is hidden 1 cm beneath the surface of the water at a fixed position. Each daily trial block consisted of four swimming trials, with each mouse starting from the same randomly chosen starting position. The starting position is varied between days. On day 1, mice that fail to find the platform within 2 min are guided to the platform. They must remain on the platform for 15 s before they are returned to their home cage. Mice are not guided to the platform after day 1, and the time it takes them to reach the platform over repeated trials ([…] for the next 10 days) is recorded as a measure of spatial learning.\nNovel object recognition test (NOR): The NOR paradigm assesses the rodent's ability to recognize a novel object in the environment. The NOR task will be conducted, as previously described7, in an opaque plastic box using 2 different objects: (1) a clear plastic funnel (diameter 8.5 cm, maximal height 8.5 cm) and (2) a black plastic box (9.5 cm^3). These objects elicit equal levels of exploration as determined in pilot experiments (Denny, C. A., et al., 2012, Hippocampus 22:1188-1201; Oury, F., et al., 2013, Cell 155:228-241). The NOR paradigm consists of 3 exposures over the course of 3 days. On day 1, the habituation phase, mice are given 5 minutes to explore the empty arena, without any objects. On day 2, the familiarization phase, mice are given 10 minutes to explore 2 identical objects, placed at opposite ends of the box. On day 3, the test phase, mice are given 15 minutes to explore 2 objects, one novel object and a copy of the object from the familiarization phase. The object that serves as the novel object (either the funnel or the box) as well as the left/right starting position of the objects are counterbalanced within each group. Mice are placed in the center of the arena at the start of each exposure. […] Preference for the novel object is assessed based on the fraction of time that a mouse spends exploring the novel object compared to the familiar object. Exploration is scored from video recordings of each exposure and recorded using the Stopwatch program. […]\nStreptavidin were added for 30 minutes at room temperature followed by PBS washes. […] For hormonal measurement; circulating levels of the carboxylated, undercarboxylated or uncarboxylated forms of osteocalcin were measured by ELISA. CTX content in serum (ng/ml) were measured with specific ELISAs (RatLaps™ (CTX-I) EIA (Immunodiagnosticsystems)."}, "[1]": {"test_system": "brainstem neurons (dorsal raphe 5-HT neurons, locus coeruleus, GABAergic interneurons)", "assay": "Whole cell current clamp recording in brainstem slices", "assay_type": "cell-based, mouse", "conditions": "3 μM, current clamp in slices", "experimental": "Brain slice preparations and electrophysiological recordings were performed according to methods known in the art. Briefly, WT mice were anesthetized with ether and then decapitated. The brains were rapidly removed and immersed in an oxygenated bath solution at 40° C. containing (in mM): sucrose 220, KCl 2.5, CaCl2 1, MgC12 6, NaH2PO4 1.25, NaHCO3 26, and glucose 10 pH 7.3 with NaOH. Coronal slices (350 μm thick) containing dorsal raphe (DR) were cut on a vibratome and maintained in a holding chamber with artificial cerebrospinal fluid (ACSF) (bubbled with 5% CO2 and 95% O2) containing (in mM): NaCl 124, KCl 3, CaCl2 2, MgCl2 2, NaH2PO4 1.23, NaHCO3 26, glucose 10, pH 7.4 with NaOH, and were transferred to a recording chamber constantly perfused with bath solution (330 C) at 2 ml/min after at least a 1 hr recovery. Whole-cell current clamp was performed to observe action potentials in DR serotoninergic (5-HT) neurons with a Multiclamp 700A amplifier (Axon instrument, CA). Patch pipettes with a tip resistance of 4-6 MΩ were made of borosilicate glass (World Precision Instruments) with a Sutter pipette puller (P-97) and filled with a pipette solution containing (in mM): K-gluconate (or Cs-gluconate) 135, MgCl2 2, HEPES 10, EGTA 1.1, Mg-ATP 2, Na2-phosphocreatine 10, and Na2-GTP 0.3, pH 7.3 with KOH. After a giga-Ohm (GΩ) seal and whole-cell access were achieved, the series resistance (between 20 and 40 MΩ) was partially compensated by the amplifier. […] All data were sampled at 3-10 kHz and filtered at 1-3 kHz with an Apple Macintosh computer using Axograph 4.9 (Axon Instruments). Electrophysiological data were analyzed with Axograph 4.9 and plotted with Igor Pro software (WaveMetrics, Lake Oswego, Oreg.)."}, "[2]": {"assay": "Blood brain barrier crossing: subcutaneous pump infusion, content in blood, bone and brain parts by ELISA", "assay_type": "in vivo, mouse", "conditions": "ob/ob mice, subcutaneous infusion 50 ng/hour, seven days; positive control", "description": "Osteocalcin−/−, Gprc6a−/−, Osteocalcin-mCherry, and Osteocalcin foxed mice have been previously described (Ducy et al., 1996, Nature 382:448-452; Oury et al., 2011, Cell 144:796-809). Mouse genotypes were determined by PCR. For all experiments, controls were littermate female WT, Cre-expressing, or flox/flox. All mice were maintained on a pure 129-Sv genetic background except for the inducible deletion Osteocalcin model (mix background: 25% C57/BL6 and 75% 129sv). For inducible gene deletion mice, tamoxifen was prepared in corn oil and injected intraperitoneally (IP) (1 mg/20g of body weight) over one week. For osteocalcin delivery to pregnant mice, IP injections (240 ng/day) were performed as soon as a plug was present daily until delivery (E0.5-E18.5). For osteocalcin or leptin infusion in adult Osteocalcin−/− or ob/ob mice, pumps (Alzet micro-osmotic pump, Model 1002) delivering osteocalcin (300 ng/hr), leptin (50 ng/hr), or vehicle were surgically installed subcutaneously in the backs of 3-month old mice. For the postnatal rescue of cognitive functions in Osteocalcin−/− mice, osteocalcin (10 ng/hour) or vehicle were delivered intrasubventricularly (icv) as previously described (Ducy et al., 2000, Cell 100:197-207). Leptin and osteocalcin content in sera and tissues were determined by ELISA.\nTo understand how this behavioral phenotype develops, whether osteocalcin crosses the blood brain barrier (BBB) was tested by installing pumps that subcutaneously delivered vehicle or uncarboxylated osteocalcin (50 ng/hour) in three-month-old Osteocalcin−/− mice. The positive control for this experiment was subcutaneous infusion of leptin (50 ng/hour) in 3 month-old ob/ob mice, since leptin is known to cross the BBB (Banks et al., 1996, Peptides 17:305-311). Seven days later, osteocalcin and leptin content were measured in blood, bone, and in various parts of the brain in Osteocalcin−/− and ob/ob mice, respectively."}, "[3]": {"test_system": "Tph2, Th, Gad1 expression in brainstem and midbrain explants", "assay": "Gene expression (qPCR) in brainstem and midbrain explants", "assay_type": "cell-based, mouse", "conditions": "leptin positive control; WT or Gprc6a−/− brainstem explants", "description": "For gene expression studies, RNA was isolated from primary neurons or tissue using TRIZOL® (Invitrogen). cDNA synthesis was performed following a standard protocol from Invitrogen and qPCR analyses were done using specific quantitative PCR primers from SABiosciences (http://www.sabiosciences.com/RT2PCR.php).\nBrains were dissected and incubated for 30 minutes in ice cold oxygenated artificial cerebrospinal fluid (ACSF). Brains were then sliced at 500 μm at the midbrain, −1.55 to −2.35 mm from the bregma, and at the level of the brainstem, from −4.04 to −4.48 mm and from −4.60 to −5.20 mm from the bregma, to include the median and dorsal raphe, respectively. These slices were incubated in ACSF for 1 h, constantly oxygenated (95% O2 and 5% CO2) […], after which they were treated with either osteocalcin (10 ng/ml) or PBS for four hours. Expression of Tph2, TH, GAD 1, GAD2, and Ddc was measured by qPCR.\nTo determine if osteocalcin acts directly on neurons to modulate neurotransmitter synthesis, several types of assays were performed. First, brainstem and midbrain explants from WT and Gprc6a^−/− mice were generated. Brains were sliced (500 μm) at the level of the median and dorsal raphe of the brainstem (from −4.04 to −4.48 mm and from −4.60 to −5.20 mm, respectively), so that they would be enriched in serotonin-producing neurons, as well as at the level of substantia nigrae and ventral tegmental areas (VTA) of the midbrain (from −1.55 to −2.35 mm and from −2.55 to −3.25 mm, respectively). Enrichment in serotoninergic and catecholaminergic neurons in these explants was verified by their high Tph2 and Th expression. While leptin, used here as a positive control, reduced, as it should, Tph2 expression in WT or Gprc6a^−/− brainstem explants, osteocalcin ([…]) increased expression of this gene 2.5 fold in both WT and Gprc6a^−/− explants. (FIG. 3D). […] Third, to further confirm that osteocalcin signals in neurons of the hindbrain, calcium flux in MPHN treated with undercarboxylated or carboxylated osteocalcin (FIG. 3F) was measured."}}, "data": [{"molecule": "NCCCC(O)(P(=O)(O)O)P(=O)(O)O", "note": "[alendronate]", "values": [{"measurement": "bone resorption", "setting": "3 month-old WT mice; 3 week-long treatment", "value": "inhibited bone resorption"}, {"measurement": "circulating levels of bioactive osteocalcin", "setting": "3 month-old WT mice; 3 week-long treatment", "value": "decreased the circulating levels of bioactive osteocalcin"}, {"measurement": "learning in the MWMT", "setting": "3 month-old WT mice; alendronate-treated mice", "value": "delay in learning in the MWMT"}, {"measurement": "memory in NOR", "setting": "3 month-old WT mice; alendronate-treated mice", "value": "memory deficit in NOR"}]}, {"molecule": "CN1CC(=O)N=C1N.NCCc1c[nH]c2ccc(O)cc12.O=S(=O)(O)O", "note": "[serotonin creatinine sulfate complex, reference compound]", "values": [{"measurement": "action potentials in dorsal raphe 5-HT neurons", "setting": "[1]", "value": "inhibited action potentials"}]}, {"molecule": "leptin (protein, UniProt P41160 22-167, looked up, adipocyte-derived hormone, positive control known to cross the BBB) Leptin: VPIQKVQDDTKTLIKTIVTRINDISHTQSVSAKQRVTGLDFIPGLHPILSLSKMDQTLAVYQQVLTSLPSQNVLQIANDLENLRDLLHLLAFSKSCSLPQTSGLQKPESLDGVLEASLYSTEVVALSRLQGSLQDILQQLDVSPEC", "values": [{"measurement": "leptin content in parts of the brain", "setting": "[2]", "value": "could be detected in the brainstem and hypothalamus"}, {"measurement": "Tph2 expression", "setting": "[3]", "value": "reduced"}]}]}
